# From patent publication US20240368226A1, “Cyclic Cell Penetrating Peptides For Treating Neisseria Gonorrhoeae Infections” (priority 2023, published 2024)
# Where a SMILES comes first, the peptide text is derived from it. Bridges are numbered along the chain shown (N, C = ends). [ ]: non-standard residue; d: D form. Ahx = NCCCCCC(=O)O
# Legend:
# [1] = in vivo; cited from earlier work
# [2] = tested on: invasion of ME-180 cells by FA1090 1-81-S2 gonococci; assay: Invasion of human cervical epithelial cells by gonococci; format: cell-based; settings: LL-37 20 μM; moi of 5; 4 h
# Protocol: Because the CPP was bactericidal for N. gonorrhoeae and, furthermore, could penetrate the bacteria, it was postulated that treatment may prevent invasion of human epithelial cells. Therefore, the effect of the CPP on the invasion of a human cervical epithelial cell line, ME-180, was tested using the AMP LL-37 for comparison. FA1090 1-81-S2 gonococci at a moi of 5 were incubated with ME-180 cells in 96-well plates with vehicle only, LL-37 (20 μM), or the CPP (100 μM) for 4 h.
# [3] = tested on: End1/E6E7 endocervical cells; assay: LDH release cytotoxicity, End1/E6E7; format: cell-based, human; design: cytotoxicity, End1/E6E7: unit of the concentration uncertain
# Protocol: (§1) To determine whether the CPPs were cytotoxic for human cells, the relative amount of LDH released from immortalized End1/E6E7 endocervical cells, ME 180 cervical cells and THP-1 monocytic cells was measured following 18 h treatment (FIG. 9A-C). […] The cytotoxicity of the endogenous AMP LL-37 was analyzed as a comparator.
# (§2) We analyzed the levels of lactate dehydrogenase (LDH) released from dying human End1/E6E7 epithelial endocervical cells1, ME-180 epithelial cervical2, and THP-1 monocytes due to cytotoxicity from exposure to the CPP structural analogs or LL-37 using the Cyquant LDH Cytotoxicity Assay Kit (Invitrogen ThermoFisher Scientific). The THP-1 cells were activated overnight by incubation with 10 ng/ml of phorbol myristate acetate (PMA; Sigma-Aldrich). After washing, cells were trypsinized, and then 1.0×10^4 cells in 100-μL media were plated per well in 96-well plates. For the activated THP-1 and ME-180 cells, Opti-MEM (Gibco) with 1% FBS was used. For the End1/E6E7 cells Keratinocyte-Scrum Free Media (ThermoFisher Scientific) with supplements was used. After plating, the activated THP-1 cells were incubated for 4-5 h and the End1/E6E7 and ME-180-cells were incubated overnight. Next stock solutions of the CPPs or LL-37 were diluted in PBS and aliquots were added to wells to create final concentrations of 100 and 200 μM of the CPPs, or 20 and 40 μM of LL-37 in total volumes of 100 μL per well. Negative control wells were treated with vehicle only, which was 1% DMSO in media. Vehicle controls for LL-37 were wells with Opti-MEM with 1% FBS only. After adding the test reagents, plates were gently mixed and incubated at 37° C. and 5% CO2 for 18 h. Positive control wells were treated with 10 μL of the Triton X-100 Lysis Buffer provided with the Cyquant kit according to the directions of the vendor. Then the levels of LDH in supernatants were quantified using a kit (Roche, Mannheim, DE, USA) with detection on an Epoch (Biotek Instruments, Winooski, Vermont, USA) microtiter plate reader at 490 nm with 680 nm subtracted. The results were reported as the percentage of LDH released from cells treated with LL-37 or CPP relative to LDH released from control cells treated with vehicle-only.
# [4] = tested on: activated THP-1 monocytic cells; assay: LDH release cytotoxicity, THP-1; format: cell-based, human; design: cytotoxicity, THP-1: unit of the concentration uncertain; settings: for cytotoxicity, THP-1: 100 (unit uncertain)
# Protocol: as §1, §2
# ME-180 cervical cells = assay: LDH release cytotoxicity, ME-180; format: cell-based, human; design: cytotoxicity, ME-180: unit of the concentration uncertain
# Protocol: as §1, §2
# sheep red blood cells = format: cell-based
# Protocol: In vitro assessment of hemolysis is important in determining the potential cytotoxicity of any material or drug that would be in contact with blood. Various protocols for determining hemolytic potential have been reported. A procedure recommended for analysis of the hemolytic potential of drug substances for RBCs using 0.1% Triton as the positive control and a 1 h incubation period was performed.
# The CPPs or the vehicle (DMSO and 0.1% Triton X-100), were diluted in PBS. Washed pooled sheep red blood cells (sRBCs; Rockland, R405-0050, 10% v/v) were diluted to 2.1% in PBS. Then 190 μL of the cell suspension was added to the wells of a 96-well plate (Corning CellBIND). Solutions (10 μL) containing the linear or DE or TE cyclized forms of the CPP at 4,000 or 2,000 μM or the DMSO and PBS vehicle were added to wells with sRBCs in triplicate. As a positive control three wells were treated with 10 μL of 2% Triton X-100. The 96 well plates were incubated at 37° C. and 5% CO2 for 1 h, and then centrifugated at 1,000×g for 5 min. Supernatant (100 μL) was transferred to a new plate and then analyzed on the Epoch microtiter plate reader at 405-nm. Results are expressed as % hemolysis, which was calculated according to the following equation: % hemolysis=[(405 nm absorbance (Abs) of RBCs in the peptide solution-405 nm Abs in PBS)/(405 nm Abs in 0.1% Triton X-100-405 nm ABs in PBS]×100. Values of >25% hemolysis were defined as poor, 10-25% medium, and <10% as non-hemolytic according to recommended guidelines.
# [5] = tested on: S. aureus strains 8325-4 and Newman; format: cell-based, Staphylococcus aureus
# Protocol: The sensitivity of a Gram positive species was also tested.
# N. flavescens strain 4322, N. lactamica strain 1934, and N. subflava strain 52, were available from the collections of the late Dr. Herman Schneider of the Walter Reed Army Institute of Research and of the Neisseria Repository that was formerly housed at UC Berkeley. The 8325-4 and Newman are strains of S. aureus. The latter is β-hemolytic.
# S. aureus were grown overnight on Difco GC agar containing 1% BBL Isovitalex Enrichment. Using a sterile cotton swab, bacterial colonies were placed in suspension in GC broth containing 1% BBL Isovitalex. Absorbance of the bacterial suspension at 595 nm was determined to enable dilution to approximately 4×10^6 cells/mL in GC broth. Aliquots of the suspension containing 8×10^5 bacteria along with the CPPs, diluted from stock solutions in DMSO, were added in GC broth containing 1% BBL Isovitalex to make a total volume of 200 μL/well. Bacteria in GC broth with Isovitalex and 1% DMSO were added to vehicle-only control wells. […] After incubation in 5% CO2 at 37° C. for 18 h, plates were analyzed at 600-nm on an Epoch microtiter plate reader. The percentage inhibition of each sample was determined relative to the absorbance of the blank (GC broth only) and the vehicle-only controls. […] If no growth was observed on the plate, then that test concentration was determined to be inhibitory.
compound,measurement,setting,value
CC(=O)N[C@H](CSSC[C@H](N)C(=O)O)C(=O)N[C@H](C)C(=O)N[C@H](CCCNC(=N)N)C(=O)N[C@H](CCCNC(=N)N)C(=O)N[C@H](CCCNC(=N)N)C(=O)N[C@H](C)C(=O)N[C@H](CCCNC(=N)N)C(N)=O [etelcalcetide],effective half-life,[1],72 to 96 h
LL-37 [reference compound],invasion of ME-180 cells,[2],completely inhibited invasion
same,"LDH levels, End1/E6E7","[3]; LL-37 20 µM, 18 h",more than doubled
same,"cytotoxicity, End1/E6E7",[3]; LL-37 20 and 40 mM,significant cytotoxicity
same,"levels of cell death compared to the vehicle-only control, THP-1","[4]; 20 or 40 μM LL-37, 18 h, p<0.001",more than doubled
same,"LDH levels, ME-180","ME-180 cervical cells; LL-37 20 µM, 18 h",more than doubled
same,"cytotoxicity, ME-180",ME-180 cervical cells; LL-37 20 and 40 mM,significant cytotoxicity
"N=C(N)NCCC[C@@H]1NC(=O)CSC[C@@H](C(N)=O)NC(=O)[C@H](CCCNC(=N)N)NC(=O)CCCCCNC(=O)[C@H](CCCNC(=N)N)NC(=O)[C@H](CCCNC(=N)N)NC(=O)CCCCCNC(=O)[C@H](CCCNC(=N)N)NC(=O)[C@H](CCCNC(=N)N)NC(=O)CCCCCNC(=O)[C@H](CCCNC(=N)N)NC(=O)[C@H](CCCNC(=N)N)NC(=O)CCCCCNC1=O [TE cyclized CPP, c [RXRRXRRXRRXRC(S—)]] ({CH2CO}-R[Ahx]RR[Ahx]RR[Ahx]RR[Ahx]RC-NH2; thioether N-13)",hemolysis of sheep RBCs,sheep red blood cells,no hemolysis
same,MIC for S. aureus,[5],> 100 µM
same,"cytotoxicity compared to DS cyclized CPP, End1/E6E7","[3]; 200 μM, 18 h",less cytotoxic compared to the DS cyclized CPP
same,"cytotoxicity compared to linear CPP, End1/E6E7","[3]; 200 μM, 18 h",less cytotoxic compared to the linear CPP
same,"cytotoxicity, End1/E6E7",[3]; 100 (unit uncertain),virtually no cytotoxicity
same,"cytotoxicity compared to DS cyclized CPP, THP-1","[4]; 200 μM, 18 h",less cytotoxic compared to the DS cyclized CPP
same,"cytotoxicity compared to linear CPP, THP-1","[4]; 200 μM, 18 h",more cytotoxic
same,"cytotoxicity, THP-1",[4],virtually no cytotoxicity
same,"cytotoxicity compared to DS cyclized CPP, ME-180","ME-180 cervical cells; 200 μM, 18 h",less cytotoxic compared to the DS cyclized CPP
same,"cytotoxicity, ME-180",ME-180 cervical cells; 100 (unit uncertain),virtually no cytotoxicity
"N=C(N)NCCC[C@H](NC(=O)CCCCCNC(=O)[C@H](CCCNC(=N)N)NC(=O)[C@H](CCCNC(=N)N)NC(=O)CCCCCNC(=O)[C@H](CCCNC(=N)N)NC(=O)[C@H](CCCNC(=N)N)NC(=O)CCCCCNC(=O)[C@H](CCCNC(=N)N)NC(=O)[C@H](CCCNC(=N)N)NC(=O)CCCCCNC(=O)[C@@H](N)CCCNC(=N)N)C(=O)O [linear CPP, RXRRXRRXRRXR, reference compound] (H-R[Ahx]RR[Ahx]RR[Ahx]RR[Ahx]R-OH)",hemolysis of sheep RBCs,sheep red blood cells,no hemolysis
same,"cytotoxicity, End1/E6E7",[3]; 100 (unit uncertain),virtually no cytotoxicity
same,"cytotoxicity, THP-1",[4],virtually no cytotoxicity
same,"cell death (LDH released), THP-1","[4]; 100 or 200 μM, 18 h",not significantly increased
same,"cytotoxicity, ME-180",ME-180 cervical cells; 100 (unit uncertain),virtually no cytotoxicity
"N=C(N)NCCC[C@@H]1NC(=O)CCCCCNC(=O)[C@H](CCCNC(=N)N)NC(=O)[C@H](CCCNC(=N)N)NC(=O)CCCCCNC(=O)[C@H](CCCNC(=N)N)NC(=O)[C@H](CCCNC(=N)N)NC(=O)CCCCCNC(=O)[C@H](CCCNC(=N)N)NC(=O)[C@H](CCCNC(=N)N)NC(=O)CCCCCNC(=O)[C@H](CCCNC(=N)N)NC(=O)[C@@H](N)CSSC[C@@H](C(N)=O)NC1=O [DS cyclized CPP, CRXRRXRRXRRXRC—NH2] (H-CR[Ahx]RR[Ahx]RR[Ahx]RR[Ahx]RC-NH2; disulfide 1-14)",hemolysis of sheep RBCs,sheep red blood cells,no hemolysis
same,"percentage of dead cells compared to the Triton X-100 treated controls, End1/E6E7",[3]; 100 and 200 mM,less than 20%
same,"cell death (LDH), THP-1","[4]; 100 µM, 18 h",significantly increased
same,"percentage of dead cells compared to the Triton X-100 treated controls, THP-1",[4]; 100 and 200 mM,less than 20%
same,"percentage of dead cells compared to the Triton X-100 treated controls, ME-180",ME-180 cervical cells; 100 and 200 mM,less than 20%
